9 compounds from patent publication EP0123485A1, “Colon-specific prodrug, the preparation and uses thereof” (priority 1983, dated 1984) can be followed below.

Data set [1] can be described thus: Recovery of steroid glycoside and free steroid from intestinal contents and tissues after intragastric administration. It counts as in vivo, Sprague-Dawley rats. The settings on record: rat, in vivo, po. As to the method: Male, Sprague-Dawley rats (ca 250 g) were maintained on laboratory rat chow and water ad lib. These rats were fasted overnight (16 hr.) prior to administration of glucoside or free steroid. Water bottles were removed from the cages at least 30 min prior to drug administration. Prednisolone glucoside, 2, (7.5 mg) or dexamethasone glucoside, 1, (7.5 mg) was administered by gastric intubation as a solution (0.5 mL) of water/95% ethanol (3:1). Prednisolone, 4, (5.25 mg) or dexamethasone, 3, (5.1 mg) was administered as a solution (0.5 mL) of water/95% ethanol (1:1). After the appropriate interval of time -3, 4, 5 or 6 hr.- the animals were sacrificed by carbon dioxide anesthesia followed by thoractomy. The small intestine and cecum were removed and cut into segments. Contents were separated from the tissues by rinsing the segments with cold, 0.9% saline (5.0 mL). The contents were immediately diluted to 30 mL with methanol. The tissues were suspended in 0.01 M KH2P04 (5.0 mL). Then an internal standard, either prednisolone, 4, or dexamethasone, 3, depending on the experimental steroid, was added to all the samples. Both the contents and tissues were then homogenized with a Polytron Homogenizer (Brinkman Inst. Co.) at med. speed for 1-2 min. The contents were then diluted to 40 mL total volume with methanol. The tissues were diluted to 25 mL total volume with methanol. All the samples were centrifuged (5,000 g, 15 min) and then the supernatant solutions were passed through membrane filters (0.45 micrometers, Versapor 800). The samples (1.4 mL) were then diluted with 0.01 M KH2PO4 (0.6 mL) and 20 microliters of the resulting solution injected directly onto the HPLC column for analysis.

A short description of data set [2]: Rate of hydrolysis in homogenized proximal small intestine contents. The settings on record: PSI contents, 37 C.
Data set [3] is described as follows: KM(app) and Vmax determinations (Eadie-Hofstee plots). It counts as in vitro ADME, rat. Particulars: 15 min, 37 C. As to the method:
KM(app) and VMax Determinations. The KM(app)-Vmax for the hydrolysis of p-NP-glc and p-NP-gal were determined using pooled cecal homogenates (200 mL) as described above. A range of substrate (56-1000 micromolar; final volume 2.25 mL) concentrations, spanning their apparent KM, was used for each reaction. The amount of cecal homogenate used was 0.04 mL. Velocities were obtained, in duplicate, at 37 °C in a shaking water bath and the reaction stopped by addition of 0.2 N NaOH (0.25 mL) after 15 min. Release of p-nitrophenol was measured spectrophotometrically at 403 nm. Eadie-Hofstee plots were used to determine the KM(app) (micromolar) and Vmax (micromolar/min/g) of both reactions. The wet weight (g), measured immediately after removal and pooling, was used throughout.
Again, cecal contents from four rats were pooled, weighed, diluted (100 mL, 0.01 M phosphate buffer, pH 7.0) and homogenized. A range of substrate concentrations (0.5-48 micromolar, final volume 2.5 mL) spanning the apparent KM, was used for each reaction. The amount of cecal homogenate used was 0.8 mL. Reactions were run, in duplicate, at 37°C in a shaking water bath. After 15 min, the reactions were stopped by removing aliquots (0.3 mL) and quenching them with MeOH (4.7 mL). […] Again, Eadie-Hofstee plots were used to determine the KM(app) and VMax.

Data set [4] is described as follows: Rate of hydrolysis in homogenized distal small intestine contents. The settings on record: for Sp. act. / Tot. act.: DSI contents, 37 C.
Excerpt: (§1) (The entire small intestine was divided into two, equal length segments to give PSI and DSI.) Gastrointestinal contents were obtained from male, Sprague-Dawley rats (300-400 g) which had been maintained on a stock diet (Purina rat chow) and water ad libitum. The intestinal contents of each section were pooled from four animals for each assay. […] Following removal, the contents were quickly weighed, then diluted to 100 milliliters (stomach, PSI, and DSI) or 200 milliliters (cecum) with cold 0.01 M phosphate buffer, pH 7.0. […] Homogenates were then stored on ice (ca 30 min). […] The reaction was run at 37 °C in a shaking water bath. The reaction was stopped after 10, 20, or 30 min by addition of 0.2 N NaOH (0.25 milliliters).
(§2) Stomach and PSI contents were diluted to 50 mL with 0.01 M phosphate buffer, pH 7.0, DSI contents to 25 mL, and cecal contents to 200 mL, prior to homogenization. The homogenates (2.1 mL of stomach, PSI, and DSI and 1.7 mL of cecum) were added to the appropriate substrate solution (0.01 M phosphate buffer, pH 7.0) to give 1.0 mM substrate in a total volume of 2.5 mL. At various times up to 30 min, aliquots (0.3 mL) were removed and quenched with MeOH (4.7 mL). After centrifugation (5,000 g, 10 min), the samples were diluted (1:1) with 0.01 M KH2PO4 and 20 microliters of the resulting solution was injected directly onto the HPLC column for analysis.
Data set [5] is described as follows: Rate of hydrolysis in homogenized stomach contents. Particulars: 37 C.
Data set [6] can be described thus: Rate of hydrolysis in homogenized cecal contents. The settings on record: for hydrolysis by cecal contents, comparison in words: cecal content homogenates; for Sp. act. / Tot. act.: cecal contents, 37 C.
Excerpt: as §1, §2
Setting [7] is: 1.0 mM prodrug, release of free steroid by HPLC.
Where [8] appears, read: prodrug 0.5-48 micromolar, 0.8 mL cecal homogenate, release of free steroid by HPLC, listed as glucoside 5.
[9] abbreviates: prodrug 0.5-48 micromolar, 0.8 mL cecal homogenate, release of free steroid by HPLC, listed as glucoside 7.
[10] abbreviates: prodrug 0.5-48 micromolar, 0.8 mL cecal homogenate, release of free steroid by HPLC, listed as galactoside 9.
Setting [11] is: prodrug 0.5-48 micromolar, 0.8 mL cecal homogenate, release of free steroid by HPLC, listed as galactoside 10.
The mark [12] stands for this setting: prodrug 0.5-48 micromolar, 0.8 mL cecal homogenate, release of free steroid by HPLC, listed as galactoside 11.
Setting [13] is: pH 7.0, 1.0 mM p-nitrophenyl substrate, p-nitrophenol at 403 nm.
The mark [14] stands for this setting: pH ca 5.0, 1.0 mM p-nitrophenyl substrate, p-nitrophenol at 403 nm.
Setting [15] is: p-nitrophenyl substrate 56-1000 micromolar, 0.04 mL cecal homogenate, p-nitrophenol at 403 nm.

The compound `C[C@@H]1C[C@H]2[C@@H]3CCC4=CC(=O)C=C[C@]4(C)[C@@]3(F)[C@@H](O)C[C@]2(C)[C@@]1(O)C(=O)CO` [Compound 3, 9 alpha-Fluoro-11 beta, 17 alpha-21 trihydroxy-16 alpha-methyl-3, 20-dioxopregna-1,4-diene, reference compound] registered a recovery at 3 h in data set [1] of 3.9%. Moreover, the “free steroid recovered in the cecum, as equivalent of the administered dose” value in data set [1] (5 h) came to 44%.

As usually defined, the Km is the concentration of substrate that gives half-maximal velocity. In general, Vmax refers to the top rate of the reaction or transport when substrate is in excess. `CC12CCC(=O)C=C1CCC1C2C(O)CC2(C)C1CCC2(O)C(=O)COC1OC(CO)C(O)C(O)C1O` [Compound 5, 11 beta, 17 alpha-Dihydroxy-3, 20-dioxopregna-4-en-21-yl beta-D-glucopyranoside]: the Sp. act. in data set [2] (setting [7]) worked out at 15.9 nmoles/min/g wet weight; in data set [4] (setting [7]), 39.2 nmoles/min/g wet weight; in data set [5] (setting [7]) it was 5.5 nmoles/min/g wet weight; in data set [6] (setting [7]), 30.5 nmoles/min/g wet weight. In addition, the Tot. act. in data set [2] (setting [7]) was 0.10 µmol/min; in data set [4] (setting [7]), 0.70 µmol/min; in data set [5] (setting [7]), 0.09 µmol/min; in data set [6] (setting [7]) it was 0.76 µmol/min. Besides, in data set [3] (setting [8]), the Km was determined as 5.7 µM. Moreover, in data set [3] (setting [8]), the Vmax was found to be 2.6 µM/min/g. Further, the “hydrolysis by cecal contents, comparison in words” value in data set [6] is “hydrolyzed more slowly than the other glucoside prodrugs”.

Regarding `CC12CCC(=O)C=C1CCC1C3CCC(O)(C(=O)COC4OC(CO)C(O)C(O)C4O)C3(C)CC(O)C12F` [Compound 7, 9 alpha-Fluoro-11 beta, 17 alpha-dihydroxy-3, 20-dioxopregna-4-en-21-yl beta-D-glucopyranoside], the Sp. act. in data set [2] (setting [7]) is 12.3 nmoles/min/g wet weight; in data set [4] (setting [7]), 33.0 nmoles/min/g wet weight; in data set [5] (setting [7]) it was 7.7 nmoles/min/g wet weight; in data set [6] (setting [7]), 42.0 nmoles/min/g wet weight. The Tot. act. was 0.08 µmol/min in data set [2] (setting [7]), 0.43 µmol/min in data set [4] (setting [7]), 0.14 µmol/min in data set [5] (setting [7]) and 1.4 µmol/min in data set [6] (setting [7]). Besides, the Km in data set [3] (setting [9]) stood at 4.4 µM. For the same compound, the Vmax in data set [3] (setting [9]) amounted to 2.4 µM/min/g. In addition, the “hydrolysis by cecal contents, comparison in words” value in data set [6] is listed as “hydrolyzed more slowly than the other glucoside prodrugs”.

For the compound `CC1CC2C3CCC4=CC(=O)C=CC4(C)C3(F)C(O)CC2(C)C1(O)C(=O)COC1OC(CO)C(O)C(O)C1O` [Compound 9, 9 alpha-Fluoro-11 beta, 17 alpha-dihydroxy-16 alpha-methyl-3, 20-dioxopregna-1,4-dien-21-yl beta-D-galactopyranoside], the Sp. act. in data set [2] (setting [7]) is 11.7 nmoles/min/g wet weight; in data set [4] (setting [7]), 29.3 nmoles/min/g wet weight; in data set [5] (setting [7]) it was 2.0 nmoles/min/g wet weight; in data set [6] (setting [7]), 322 nmoles/min/g wet weight. In addition, the Tot. act. in data set [2] (setting [7]) amounted to 0.004 µmol/min; in data set [4] (setting [7]), 0.41 µmol/min; in data set [5] (setting [7]) it was 0.004 µmol/min; in data set [6] (setting [7]), 6.5 µmol/min. The Km in data set [3] (setting [10]) was found to be 13.3 µM. In addition, the maximum rate (Vmax) in data set [3] (setting [10]) was found to be 3.9 µM/min/g. Moreover, the “hydrolysis by DSI contents, comparison in words” value in data set [4] (homogenates of DSI contents) is reported as “more resistant to hydrolysis than the other prodrugs”.

Turning to `CC12C=CC(=O)C=C1CCC1C2C(O)CC2(C)C1CCC2(O)C(=O)COC1OC(CO)C(O)C(O)C1O` [Compound 10, 11 beta, 17 alpha-dihydroxy-3,20-dioxopregna-l,4-dien-21-yl beta-D-galactopyranoside], the Sp. act. is recorded as 49.3 nmoles/min/g wet weight in data set [2] (setting [7]), 122 nmoles/min/g wet weight in data set [4] (setting [7]), 12.1 nmoles/min/g wet weight in data set [5] (setting [7]) and 665 nmoles/min/g wet weight in data set [6] (setting [7]). Moreover, the Tot. act. is 0.23 µmol/min in data set [2] (setting [7]), 1.72 µmol/min in data set [4] (setting [7]), 0.19 µmol/min in data set [5] (setting [7]) and 13 µmol/min in data set [6] (setting [7]). Moreover, the Km in data set [3] (setting [11]) amounted to 20 µM. Also, the Vmax in data set [3] (setting [11]) amounted to 10.3 µM/min/g.

Consider `CC12CCC(=O)C=C1CCC1C2C(O)CC2(C)C1CCC2(O)C(=O)COC1OC(CO)C(O)C(O)C1O` [Compound 11, 11 beta, 17 alpha-Dihydroxy-3, 20-dioxopregna-4-en-21-yl beta-D-galactopyranoside], for which the Sp. act. in data set [2] (setting [7]) is on record as 42.5 nmoles/min/g wet weight; in data set [4] (setting [7]), 110 nmoles/min/g wet weight; in data set [5] (setting [7]), 12.5 nmoles/min/g wet weight; in data set [6] (setting [7]) it was 592 nmoles/min/g wet weight. Moreover, the Tot. act. in data set [2] (setting [7]) was determined as 0.02 µmol/min; in data set [4] (setting [7]) it was 1.6 µmol/min; in data set [5] (setting [7]) it was 0.02 µmol/min; in data set [6] (setting [7]), 11.9 µmol/min. Further, the Km in data set [3] (setting [12]) was determined as 16.7 µM. Further, the Vmax in data set [3] (setting [12]) was determined as 10.2 µM/min/g.

Consider `O=[N+]([O-])c1ccc(O[C@@H]2O[C@H](CO)[C@@H](O[C@@H]3O[C@H](CO)[C@@H](O)[C@H](O)[C@H]3O)[C@H](O)[C@H]2O)cc1` [p-NP-cel, p-nitrophenyl-beta-D-cellobioside, reference compound], for which the Sp. act. is 7.2 nmoles/min/g wet weight in data set [2] (setting [13]), 26.0 nmoles/min/g wet weight in data set [4] (setting [13]), 34.2 nmoles/min/g wet weight in data set [5] (setting [14]) and 96.5 nmoles/min/g wet weight in data set [6] (setting [13]). For the same compound, the Tot. act. in data set [2] (setting [13]) stood at 0.05 µmol/min; in data set [4] (setting [13]) it was 0.25 µmol/min; in data set [5] (setting [14]) it was 0.35 µmol/min; in data set [6] (setting [13]), 2.6 µmol/min.

As to `O=[N+]([O-])c1ccc(O[C@@H]2O[C@H](CO)[C@H](O)[C@H](O)[C@H]2O)cc1` [p-NP-gal, p-nitrophenyl-beta-D-galactoside, reference compound], in data set [3] (setting [15]), the Km was 166 µM and the maximal velocity (Vmax) was 1233 µM/min/g.

Consider `O=[N+]([O-])c1ccc(O[C@@H]2O[C@H](CO)[C@@H](O)[C@H](O)[C@H]2O)cc1` [p-NP-glc, p-nitrophenyl-beta-D-glucoside, reference compound], for which, in data set [3] (setting [15]), the Km is 360 µM and the Vmax came out at 697 µM/min/g.
